Results as given in patent publication US7919468B2, “Compounds useful as modulators of the proteasome activity” (Centre National de la Recherche Scientifique (C.N.R.S.), priority 2005, dated 2011).
Peptide text beside a SMILES is read from it. * marks the point of attachment. Boc = CC(C)(C)OC(=O)*; NHBn = c1ccc(CN*)cc1; Bn = c1ccc(C*)cc1

Legend:
Assay type in all cases: biochemical
[1] = molecular target: T1, rabbit 20S proteasome, post-acid (PA) activity (Oryctolagus cuniculus, UniProt A0A5F9DQW2); test: Rabbit 20S proteasome fluorescent assay, post-acid activity (Z-LLE-βNA); conditions: pH 7.5, 30° C.; for PA % inhibition (at 100 μM): 100 μM compound
T1 construct: other: 100 μM compound, pH 7.5, 30° C; other: pH 7.5, 30° C
Protocol: (§1) 20S proteasome from rabbit reticulocyte was from commercial source (Alexis Biochemicals)
(§2) Semi-automatic fluorescent assays using Suc-LLVY-amc (SEQ ID NO: 2) for chymotrypsin-like activity, Z-LLE-SNA for post-acid activity and Boc-LLR-amc for trypsin-like activity of proteasome were performed at pH 7.5 and 30° C. using BMG Fluostar microplate reader (Suc=succinyl; amc=7-amino-4-methylcoumarin; Z=benzyloxycarbonyl; NA=2-naphtylamine; Boc=tert-butoxycarbonyl). The buffers were: 20 mM Tris, 1 mM DTT, 10% glycerol, 3% (v/v) DMSO (ChT-L and PA activities); 20 mM Tris, 1 mM DTT, 10% glycerol, 3% (v/v) DMSO. Studied compounds were dissolved in DMSO prior dissolution in the buffer. Proteasome was incubated for 15 min at 30° C. in the presence of the studied compound (0.1-100 μM). A control assay in the absence of tested compounds contained DMSO at the same concentration (3%, v/v). The fluorogenic proteasome substrate was then added and the hydrolysis of the appropriate fluorescent substrate was monitored for 1 h (λexc=360, λem=465 nm for amc substrates and λexc=340, λem=405 nm for the βNA substrate). Initial rates determined in control experiments were considered to be 100% of the peptidasic activity; initial rates that were above 100% in the presence of a test compound were considered to be activations, while initial rates below 100% were considered to be inhibitions. For weak inhibitors, the percentage of inhibition at a reference concentration (100 μM) is reported. The results, expressed in % inhibition (or activation factor), were obtained by calculating the average of at least two independent experiments, the variability was less than 10%. The inhibitory activity of more efficient compounds are expressed as IC50 calculated by fitting the experimental data to the equation 1: % Inhibition=100 [I]0/(IC50+[I]0)=100 (v0−vi/v0), or equation 2: % Inhibition=100 [I]0^nH/(IC50^nH+[I]0^nH), nH is the Hill number. v0 and vi are the initial rates in the absence and in the presence of inhibitor. A Dixon plot has been used to determine the inhibition constant Ki for competitive inhibition by compound A215. The reversible character of inhibition or activation was determined by measuring the activity of treated enzyme after the inhibitor molecule has been withdrawn from the reaction medium.
(§3) Inhibition of Rabbit 20 S Proteasome (pH=7.5, 30° C.)
(§4) Activation of Rabbit 20 S Proteasome (pH=7.5, 30° C., [Compound]=100 μM)

[2] = tested on: rabbit 20S proteasome, trypsin-like (T-L) activity; test: Rabbit 20S proteasome fluorescent assay, trypsin-like activity (Boc-LLR-amc); conditions: [Compound]=100 μM, pH 7.5, 30° C.
Protocol: as §1, §2, §3, §4

[3] = molecular target: T2, rabbit 20S proteasome, chymotrypsin-like (CT-L) activity (Oryctolagus cuniculus, UniProt G1T4Q9); test: Rabbit 20S proteasome fluorescent assay, chymotrypsin-like activity (Suc-LLVY-amc); conditions: pH 7.5, 30° C.; for inhibition at 100 µM: 100 μM compound
T2 construct: other: 100 μM compound, pH 7.5, 30° C; other: pH 7.5, 30° C; CT-L Ki
T2 sequence (G1T4Q9 1-263): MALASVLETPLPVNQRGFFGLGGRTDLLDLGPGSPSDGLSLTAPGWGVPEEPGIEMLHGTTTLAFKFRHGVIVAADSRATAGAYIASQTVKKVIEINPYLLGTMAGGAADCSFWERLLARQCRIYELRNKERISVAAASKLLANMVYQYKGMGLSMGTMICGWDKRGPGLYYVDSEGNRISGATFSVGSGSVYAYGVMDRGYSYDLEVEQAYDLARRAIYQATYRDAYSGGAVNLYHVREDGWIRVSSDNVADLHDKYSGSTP
Protocol: as §1, §2, §3, §4

T1 sequence (A0A5F9DQW2 1-212): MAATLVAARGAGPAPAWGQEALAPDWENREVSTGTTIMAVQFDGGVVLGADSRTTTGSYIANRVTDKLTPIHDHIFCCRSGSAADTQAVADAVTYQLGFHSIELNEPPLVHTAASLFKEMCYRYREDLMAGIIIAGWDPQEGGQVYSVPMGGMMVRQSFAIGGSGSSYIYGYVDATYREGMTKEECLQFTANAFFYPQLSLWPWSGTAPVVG

| SMILES | PA % inhibition (at 100 μM) [1] [%] | T-L Activation factor [2] | inhibition at 100 µM [3] [%] | IC50 [3] [µM] | IC50 [1] [µM] |
| --- | --- | --- | --- | --- | --- |
| CC(C)(C)OC(=O)N[C@@H](Cc1ccc(OCc2ccccc2)cc1)C(=O)N[C@@H](CC(N)=O)C(=O)N[C@@H](Cc1c[nH]c2ccccc12)C(=O)Nc1ccc(O)cc1 [SP318C, N-Boc-Tyr(Bn)-Asn-Trp-NH(4-OH)Ph] | 66 | 1.2 | 15 |  |  |
| COC(=O)[C@H](CC1C(=O)Nc2ccccc21)NC(=O)CNC(=O)[C@H](Cc1ccc(OCc2ccccc2)cc1)NC(=O)OC(C)(C)C (some centres unmarked) [NR38, Boc-Tyr(Bn)-Gly-Trp[O]—OCH3] | 81 | 9.8 |  | 13.5 |  |
| CC(C)(C)OC(=O)N[C@@H](Cc1ccc(OCc2ccccc2)cc1)C(=O)N[C@@H](CCCN(C(=N)NC(=O)OCc1ccccc1)C(=O)OCc1ccccc1)C(=O)N[C@@H](CC1C(=O)Nc2ccccc21)C(=O)Nc1ccccc1 (some centres unmarked) [CV11, Boc-Tyr(Bn)-Arg(Z)-2-Trp[O]—NHPh] |  | 1.7 |  |  |  |
| C[C@H](NC(=O)[C@H](Cc1ccc(OCc2ccccc2)cc1)NC(=O)OC(C)(C)C)C(=O)N[C@@H](CC1C(=O)Nc2ccccc21)C(=O)Nc1ccccc1 (some centres unmarked) [CV13, Boc-Tyr(Bn)-Ala-Trp[O]—NHPh] |  |  | 32 |  | 3.9 |
| CC(C)(C)OC(=O)N[C@@H](Cc1ccc(OCc2ccccc2)cc1)C(=O)N[C@@H](CC(N)=O)C(=O)N[C@@H](Cc1c[nH]c2ccccc12)C(=O)NCc1ccccc1 [A416, N-Boc-Tyr(Bn)-Asn-Trp-NHCH2Ph] (Boc-Tyr(Bn)-Asn-Trp-NHBn) | 35 | 2.2 | 28 |  |  |
| CC(C)(C)OC(=O)N[C@@H](Cc1ccc(OCc2ccccc2)cc1)C(=O)N[C@@H](CCCN(C(=N)NC(=O)OCc1ccccc1)C(=O)OCc1ccccc1)C(=O)N[C@@H](CC1C(=O)Nc2ccccc21)C(=O)NCc1ccccc1 (some centres unmarked) [NR16, Boc-Tyr(Bn)-Arg(Z)-2-Trp[O]—NHCH2Ph] |  | 8.2 | 12 |  |  |
| COC(=O)[C@H](Cc1c[nH]c2c(Br)cccc12)NC(=O)CCNC(=O)C(Cc1ccc(OC)c(I)c1)NC(=O)OC(C)(C)C (some centres unmarked) [A493, N-Boc-3-iodo-Tyr(Me)-βAla-7-bromo-Trp-OMe] | 40 | 8.2 | 29 |  |  |
| COC(=O)[C@H](Cc1c[nH]c2c(Br)cccc12)NC(=O)[C@H](CC(C)C)NC(=O)[C@H](Cc1ccc(OC)c(I)c1)NC(=O)OC(C)(C)C [A363, N-Boc-3-iodo-Tyr(Me)-Leu-7-bromo-Trp-OMe] | 20 | 1.9 |  |  |  |
| COC(=O)[C@H](Cc1c[nH]c2c(Br)cccc12)NC(=O)[C@H](CC(N)=O)NC(=O)[C@H](Cc1ccc(OCc2ccccc2)c(I)c1)NC(=O)OC(C)(C)C [SP274, N-Boc-3-iodo-Tyr(Bn)-Asn-7-bromo-Trp-OMe] | 45 |  | 62 |  |  |
| CCOC(=O)[C@H](Cc1c[nH]c2c(-c3cc(C[C@H](NC(=O)OC(C)(C)C)C(=O)N[C@@H](CC(C)C)C(=O)OC)ccc3OCc3ccccc3)cccc12)NC(=O)OCc1ccccc1 [SP221] |  | 1.4 |  |  |  |
| CNC(=O)[C@H](Cc1c[nH]c2c(Br)cccc12)NC(=O)[C@H](C)NC(=O)[C@H](Cc1ccc(OCc2ccccc2)c(I)c1)NC(=O)OC(C)(C)C [A254, N-Boc-3-iodo-Tyr(Bn)-Ala-7-bromo-Trp-NHMe] | 60 |  | 38 |  |  |
| CC(C)(C)OC(=O)N[C@@H](Cc1ccc(OCc2ccccc2)cc1)C(=O)NCC(=O)N[C@@H](CC1C(=O)Nc2ccccc21)C(=O)NCc1ccccc1 (some centres unmarked) [NR15, Boc-Tyr(Bn)-Gly-Trp[O]—NHCH2Ph] | 87 | 12.3 |  | 2.2 |  |
| CC(C)C[C@H](NC(=O)[C@H](Cc1ccc(OCc2ccccc2)cc1)NC(=O)OC(C)(C)C)C(=O)N[C@@H](Cc1c[nH]c2ccccc12)C(=O)Nc1ccc(O)cc1 [A418P, N-Boc-Tyr(Bn)-Leu-Trp-NH(4-OH)Ph] | 32 | 1.6 |  |  |  |
| CCOC(=O)[C@H](Cc1c[nH]c2c(Br)cccc12)NC(=O)[C@H](CC(C)C)NC(=O)[C@H](Cc1ccc(OC)c(I)c1)NC(=O)OC(C)(C)C [A340, N-Boc-3-iodo-Tyr(Me)-Leu-7-bromo-Trp-OEt] | 17 |  |  |  |  |
| C[C@H](NC(=O)[C@H](Cc1ccc(OCc2ccccc2)cc1)NC(=O)OC(C)(C)C)C(=O)N[C@@H](Cc1c[nH]c2ccccc12)C(=O)NCc1ccccc1 [SP304R, N-Boc-Tyr(Bn)-Ala-Trp-NHCCH2Ph] (Boc-Tyr(Bn)-Ala-Trp-NHBn) | 45 | 1.7 |  |  |  |
| CC(C)C[C@H](NC(=O)[C@H](Cc1ccc(OCc2ccccc2)cc1)NC(=O)OC(C)(C)C)C(=O)N[C@@H](CC1C(=O)Nc2ccccc21)C(=O)Nc1ccccc1 (some centres unmarked) [JV602, Boc-Tyr(Bn)-Leu-Trp[O]—NHPh] | 26 | 1.3 | 22 |  |  |
| COC(=O)[C@H](Cc1c[nH]c2c(Br)cccc12)NC(=O)[C@H](CC(C)C)NC(=O)[C@H](Cc1ccc(OCc2ccccc2)c(I)c1)NC(=O)OC(C)(C)C [A268, N-Boc-3-iodo-Tyr(Bn)-Leu-7-bromo-Trp-OMe] |  | 2 |  |  |  |
| COC(=O)[C@H](Cc1c[nH]c2ccccc12)NC(=O)[C@H](C)NC(=O)[C@H](Cc1ccc(OCc2ccccc2)cc1)NC(=O)OC(C)(C)C [NR36, N-Boc-Tyr(Bn)-Ala-Trp-OCH3] (Boc-Tyr(Bn)-Ala-Trp-OMe) | 39 | 9.8 | 34 |  |  |
| CC(C)(C)OC(=O)N[C@@H](Cc1ccc(OCc2ccccc2)cc1)C(=O)NCC(=O)N[C@@H](Cc1c[nH]c2ccccc12)C(=O)O [NR35, N-Boc-Tyr(Bn)-Gly-Trp-OH] (Boc-Tyr(Bn)-Gly-Trp-OH) |  | 1.8 |  |  |  |
| COC(=O)[C@H](Cc1c[nH]c2ccccc12)NC(=O)[C@H](C)NC(=O)[C@H](Cc1ccc(O)cc1)NC(=O)OC(C)(C)C [NR40, N-Boc-Tyr-Ala-Trp-OCH3] (Boc-Tyr-Ala-Trp-OMe) |  | 6 |  | 40 | 35 |
| COC(=O)[C@H](Cc1c[nH]c2c(Br)cccc12)NC(=O)[C@H](C)NC(=O)[C@H](Cc1ccc(OCc2ccccc2)c(I)c1)NC(=O)OC(C)(C)C [A248, N-Boc-3-iodo-Tyr(Bn)-Ala-7-bromo-Trp-OMe] | 32 |  |  |  |  |
| C[C@H](NC(=O)[C@H](Cc1ccc(OCc2ccccc2)cc1)NC(=O)OC(C)(C)C)C(=O)N[C@@H](Cc1c[nH]c2ccccc12)C(=O)Nc1ccc(O)cc1 [SP313P, N-Boc-Tyr(Bn)-Ala-Trp-NH(4-OH)Ph] |  |  | 26 |  | 4 |
| CC(C)(C)OC(=O)NCCC[C@H](NC(=O)[C@H](Cc1ccc(OCc2ccccc2)cc1)NC(=O)OC(C)(C)C)C(=O)N[C@@H](CC1C(=O)Nc2ccccc21)C(=O)Nc1ccccc1 (some centres unmarked) [CV12, Boc-Tyr(Bn)-Lys(Boc)-Trp[O]—NHPh] |  | 1.5 |  |  | 10.4 |
| COC(=O)[C@H](Cc1c[nH]c2c(Br)cccc12)NC(=O)[C@H](C)NC(=O)[C@H](Cc1ccc(OC)c(I)c1)NC(=O)OC(C)(C)C [A385, N-Boc-3-iodo-Tyr(Me)-Ala-7-bromo-Trp-OMe] | 38 |  | 28 |  |  |
